Experimental data taken from patent publication US20180193273A1, “PHARMACEUTICAL COMPOSITION COMPRISING AMLODIPINE AND DEXTROMETHORPHAN” (TSH BIOPHARM CORPORATION LTD., priority 2015, published 2018).

How the values were obtained:
[1] = Different excipients: potency and impurity of vial samples A1 to A25 after 60° C./75% RH for 2 weeks (HPLC); type: physicochemical; details: glass vial sample
[2] = Compatibility study: drug potency and total impurity test of vial powder mixes after storage at 60° C./75% RH for 2 weeks (HPLC); type: physicochemical; details: glass vial powder mix

## CCOC(=O)C1=C(COCCN)NC(C)=C(C(=O)OC)C1c1ccccc1Cl (stereo not drawn) [Sample A1, Amlodipine besylate]
[1]
  Total impurity (%): NMT 1.00%: 0.02%

## CCOC(=O)C1=C(COCCN)NC(C)=C(C(=O)OC)C1c1ccccc1Cl (stereo not drawn) [Table 1, Amlodipine besylate]
[2]
  % Potency (Amlodipine besylate): 100.2%
  Total impurity: 0.02
